IC50 data for 1 compound are collected here from ChEMBL document CHEMBL4396909, “Evolution of HIV-1 reverse transcriptase and integrase dual inhibitors: Recent advances and developments” (Eur J Med Chem, 2019).

Structures are written as SMILES.

The subject of the assay is Human immunodeficiency virus 1. Kind of assay: Antiviral activity against HIV-1 infected in HEK293 cells preincubated for 4 hrs with cell followed by viral infection measured after 24 hrs by luciferase reporter gene assay. In kind it is functional, organism-based. The note with it: Human immunodeficiency virus 1, HEK293.

As to `O=C(O)C(=O)CC(=O)c1cc(OCc2ccccc2)cc(OCc2ccccc2)c1`, the IC50 (as a rule, the concentration that gives 50% inhibition) turned out to be 480 nM.
